Results published in patent US12187703B2, “Crystalline forms of N-(3-(2-(2-hydroxyethoxy)-6-morpholinopyridin-4-yl)-4-methvlphenyl)-2 (trifluoromethyl)isonicotinamide as Raf inhibitors for the treatment of cancer” (NOVARTIS AG, priority 2019, dated 2025).
Values after ≈ are worked out from the molar mass of the structure shown. Where two headings read alike, the source gives them in different places.

Assays:
Format in all cases: physicochemical
[1] = Water activity experiments of Form A
Protocol: About 100 mg of Form A is equilibrated with 0.5 mL solvent by stirring at RT or 50° C. The slurries are filtered. The wet cake is investigated by XRPD.

[2] = Solubility at 25° C., 24 hours slurry; settings: for Final pH: 25° C.; for solubility at 24 h: 25 °C, thermodynamic from solid, read-out: Solubility at 25° C.
Protocol: A sample was weighed in a glass vial and solvent added to make a slurry followed by stirring or shaking at 25° C. for 24 hours. The amount of sample and solvents depends on the target concentration, e.g. if the target concentration is 10 mg/mL, the weight of the sample should be 10 mg and the amount of solvent volume should be 1 mL. The solid and liquid are separated by centrifugation at 13000 rpm for 2 minutes with 0.2 μm membrane. The filtrate is then used for the solubility test after appropriate dilution. The diluent is from the UPLC method. The solids obtained after equilibration were analyzed by XRPD after being dried at 40° C. under vacuum for 2 hours. DSC/TGA analysis was conducted for selected samples.

[3] = Hygroscopicity, storage and solubility conclusions; settings: for Hygroscopicity: non-hygroscopic defined as water uptake at most 2 w-%, 0 to 95% RH, 25° C. (GMS/DVS)
Excerpt: The term “non-hygroscopic” as used herein refers to a compound showing a water uptake of at most 2 w-% in the sorption cycle when measured with GMS (or DVS) at a relative humidity in the range of from 0 to 95% RH and a temperature of (25.0±0.1) ° C., based on the weight of the compound. Non-hygroscopic is preferably up to 0.2%.

[4] = Behaviour under compression, grinding and granulation with water
[5] = Particle size distribution by Fraunhofer light diffraction; settings: pilot manufacture batch, kilogram scale; listed as Modification A
Protocol: (§1) Pilot manufacture batches producing Modification HA and Form A on kilogram scale were compared for their respective bulk powder properties. The particle size distribution (PSD) was determined according to the corresponding method for release. Other measurements were performed using technical methods known in the art or as described herein.
A few drops of the dispersing aid were added to an appropriate amount of test substance. The mixture was mixed intensively, e.g. on a vortex mixer, in order to wet the substance thoroughly and to form a smooth and homogeneous paste. The resultant paste was diluted with the dispersion liquid to a final volume of 3-6 ml and the dispersion mixed again. The cumulative volume distribution was determined using a laser light diffraction instrument as stated above. The parameters could be adjusted accordingly so that the test dispersion is representative, homogeneous and well dispersed.
Particle sizes were determined at the undersize values of 10%, 50% and 90% (×10, ×50, ×90), and additional values in question, from the cumulative volume distribution.

[6] = Bulk density and flowability with ring shear tester; settings: listed as Modification A
Protocol: as §1

[7] = Stability testing, solid state bulk (UPLC, color, XRPD, TGA); design: key: A: No change of color; B: Slight discoloration
Protocol: (§2) X-ray powder diffraction (XRPD) analysis of all polymorph forms was performed using a Bruker D8 Discover x-ray diffractometer with XYZ stage. Measurements were taken at about 40 kV and 1 mA under the following conditions:
(§3) Crystalline Monohydrate Form HA was analysed by thermogravimetric analysis (TGA) using a Discovery Thermogravimetric Analysis Calorimeter from TA instruments under the following conditions (see Table 6).
(§4) No notable change in chemical purity, nor change in XRPD, nor change in TGA, was observed.

[8] = as above; design: key: A: No change of color; settings: Solid state
Protocol: as §2, §3, §4

[9] = as above
Protocol: as §2, §3, §4

[10] = 50° C., water 0%/IPA 100%, aw 0.000
[11] = 50° C., water 1%/IPA 99%, aw 0.124
[12] = 50° C., water 3.2%/IPA 96.8%, aw 0.324
[13] = 50° C., water 100%/IPA 0%, aw 1.000
[14] = RT, water 0%/IPA 100%, aw 0.000
[15] = RT, water 100%/IPA 0%, aw 1.000
[16] = Solid state, 1 week 80° C./75% r.h.
[17] = Xenon light (approx. 1200 kLuxh)
[18] = Solid state, 1 week 50° C., closed container
[19] = Solid state, 1 week 50° C./75% r.h.
[20] = Solid state, 1 week 80° C., closed container

Cc1ccc(NC(=O)c2ccnc(C(F)(F)F)c2)cc1-c1cc(OCCO)nc(N2CCOCC2)c1 [Form A, N-(3-(2-(2-hydroxyethoxy)-6-morpholinopyridin-4-yl)-4-methylphenyl)-2-(trifluoromethyl)isonicotinamide]
After 1 d equilibration (wet cake XRPD) [1, 10]: Form A
After 5 d equilibration (wet cake XRPD) [1, 10]: Form A
After 1 d equilibration (wet cake XRPD) [1, 11]: Form A
After 5 d equilibration (wet cake XRPD) [1, 11]: Form A
After 1 d equilibration (wet cake XRPD) [1, 12]: Form A
After 5 d equilibration (wet cake XRPD) [1, 12]: Form A
After 1 d equilibration (wet cake XRPD) [1, 13]: Form A
After 5 d equilibration (wet cake XRPD) [1, 13]: Form A
After 1 d equilibration (wet cake XRPD) [1, 14]: Form A
After 5 d equilibration (wet cake XRPD) [1, 14]: Form A
After 1 d equilibration (wet cake XRPD) ([1]; RT, water 1%/IPA 99%, aw 0.120): Form A
After 5 d equilibration (wet cake XRPD) ([1]; RT, water 1%/IPA 99%, aw 0.120): Form A
After 1 d equilibration (wet cake XRPD) ([1]; RT, water 3.2%/IPA 96.8%, aw 0.316): Form A + HA
After 1 d equilibration (wet cake XRPD) [1, 15]: Form A
After 5 d equilibration (wet cake XRPD) [1, 15]: Form A
Time for complete conversion of Form A to Monohydrate HA ([1]; water activity of 0.3, room temperature): 5 days
Solubility at 25° C. ([2]; 0.01N HCl, pH 2.0): 1.4 µg/mL (≈ 2.79 µM)
Final pH ([2]; 0.01N HCl, pH 2.0): 2.16
Solubility at 25° C. ([2]; 0.1N HCl, pH 1.0): 292.9 µg/mL (≈ 583 µM)
Final pH ([2]; 0.1N HCl, pH 1.0): 1.07
Final pH ([2]; Acetate buffer, pH 4.7): 4.82
Final pH ([2]; Borate buffer, pH 9.0): 9.01
solubility at 24 h ([2]; FaSSIF, pH 6.5, fassif, FaSSIF, pH 6.5): 0.8 µg/mL (≈ 1.59 µM)
Final pH ([2]; FaSSIF, pH 6.5): 6.45
Solubility at 25° C. ([2]; FeSSIF, pH 5.8): 41.3 µg/mL (≈ 82.2 µM)
Final pH ([2]; FeSSIF, pH 5.8): 5.82
solubility at 24 h ([2]; N,N-dimethylformamide, organic solvent or mixture, N,N-Dimethylformamide): > 10000 µg/mL
Final pH ([2]; Phosphate buffer, pH 6.8): 6.74
Solubility at 25° C. ([2]; SGF, pH 2.0): 22 µg/mL (≈ 43.8 µM)
Final pH ([2]; SGF, pH 2.0): 2.05
Final pH ([2]; Water): 8.93
solubility at 24 h ([2]; acetate buffer, pH 4.7, aqueous buffer, Acetate buffer, pH 4.7): < 0.3 µg/mL
solubility at 24 h ([2]; acetonitrile, organic solvent or mixture, Acetonitrile): > 10000 µg/mL
solubility at 24 h ([2]; borate buffer, pH 9, aqueous buffer, Borate buffer, pH 9.0): < 0.3 µg/mL
solubility at 24 h ([2]; dichloromethane, organic solvent or mixture, Dichloromethane): > 10000 µg/mL
solubility at 24 h ([2]; ethanol, organic solvent or mixture, Ethanol): > 10000 µg/mL
solubility at 24 h ([2]; ethyl acetate, organic solvent or mixture, Ethyl acetate): > 10000 µg/mL
solubility at 24 h ([2]; phosphate buffer, pH 6.8, aqueous buffer, Phosphate buffer, pH 6.8): < 0.3 µg/mL
solubility at 24 h ([2]; water, water, Water): < 0.3 µg/mL
Relative solubility of forms [3]: more soluble than Form HA
Solubility, overall rating [3]: adequate solubility
Stability when stored in bulk quantities [3]: stable when stored in bulk quantities
Hygroscopicity [3]: non-hygroscopic
Physical form upon granulation with water or compression [4]: remains unchanged
Crystallinity when compressed ([4]; pressures of 3 to 6 MPa): slight decrease in crystallinity
Diameter X of PSD measured during release, X50 [5]: X50: 8 μm
Diameter X of PSD measured during release, X90 [5]: X90: 44 μm
Bulk flowability with ring shear tester, rating in words ([6]; under 1250 Pa normal stress): “very cohesive”
Technical measurement of bulk flowability with ring shear tester ([6]; under 1250 Pa normal stress): 1.45
Technical measurement of bulk density with ring shear tester ([6]; under no consolidation stress): 71 kg/m^3

Cc1ccc(NC(=O)c2ccnc(C(F)(F)F)c2)cc1-c1cc(OCCO)nc(N2CCOCC2)c1 [Form B, N-(3-(2-(2-hydroxyethoxy)-6-morpholinopyridin-4-yl)-4-methylphenyl)-2-(trifluoromethyl)isonicotinamide]
Solubility at 25° C. ([2]; 0.01N HCl, pH 2.0): 141.2 µg/mL (≈ 281 µM)
Final pH ([2]; 0.01N HCl, pH 2.0): 2.04
Solubility at 25° C. ([2]; 0.1N HCl, pH 1.0): 1026.4 µg/mL (≈ 2040 µM)
Final pH ([2]; 0.1N HCl, pH 1.0): 1.02
Solubility at 25° C. ([2]; Acetate buffer, pH 4.7): < 0.2 µg/mL
Final pH ([2]; Acetate buffer, pH 4.7): 4.78
Solubility at 25° C. ([2]; Acetonitrile): >10000 µg/mL
Solubility at 25° C. ([2]; Borate buffer, pH 9.0): < 0.2 µg/mL
Final pH ([2]; Borate buffer, pH 9.0): 8.97
Solubility at 25° C. ([2]; Dichloromethane): >10000 µg/mL
Solubility at 25° C. ([2]; Ethanol): >10000 µg/mL
Solubility at 25° C. ([2]; Ethyl acetate): >10000 µg/mL
Solubility at 25° C. ([2]; FaSSIF, pH 6.5): 1.4 µg/mL (≈ 2.79 µM)
Final pH ([2]; FaSSIF, pH 6.5): 6.91
Solubility at 25° C. ([2]; FeSSIF, pH 5.8): 137 µg/mL (≈ 273 µM)
Final pH ([2]; FeSSIF, pH 5.8): 6.08
Solubility at 25° C. ([2]; N,N-Dimethylformamide): >10000 µg/mL
Solubility at 25° C. ([2]; Phosphate buffer, pH 6.8): < 0.2 µg/mL
Final pH ([2]; Phosphate buffer, pH 6.8): 6.75
Solubility at 25° C. ([2]; SGF, pH 2.0): 2.1 µg/mL (≈ 4.18 µM)
Final pH ([2]; SGF, pH 2.0): 2.02
Solubility at 25° C. ([2]; Water): < 0.2 µg/mL
Final pH ([2]; Water): 8.11
solubility at 24 h ([2]; heptane, organic solvent or mixture, Heptane): < 0.2 µg/mL
Relative solubility of forms [3]: more soluble than Form A
Solubility, overall rating [3]: adequate solubility
Stability when stored in bulk quantities [3]: stable when stored in bulk quantities
Hygroscopicity [3]: non-hygroscopic
XRPD pattern upon grinding, compression and granulation with water [4]: did not change
Color (CL) [7, 16]: B
Color (CL) [7, 17]: B
Color (CL) ([8]; 1 week 50° C., closed container): A
Color (CL) ([8]; 1 week 50° C./75% r.h.): A
Color (CL) ([8]; 1 week 80° C., closed container): A
Bulk (XRPD) [9, 18]: no change
DP %, Bulk (UPLC) [9, 18]: 2.46%
Bulk (XRPD) [9, 19]: no change
DP %, Bulk (UPLC) [9, 19]: 2.49%
Bulk (XRPD) [9, 20]: no change
DP %, Bulk (UPLC) [9, 20]: 2.12%
Bulk (XRPD) [9, 16]: changed
DP %, Bulk (UPLC) [9, 16]: 3.32%
Bulk (XRPD) [9, 17]: no change
DP %, Bulk (HPLC) [9, 17]: 3.66%
Stability upon exposure to elevated temperature or humidity ([9]; degradation products and physical form): relatively stable
